# Laboratory results as given in patent US20230201030A1, “DISSOLVABLE MEDICAL DEVICE FOR DRUGS DELIVERY” (Alcon Inc., priority 2021, published 2023).
# Test system: pupil
# Assay: Response behavior of phenylephrine (pupil dilation) delivered in the presence/absence of the polymeric film
# Type: in vivo
# Settings: 0.005% phenylephrine with polymeric film vs 2.5% phenylephrine alone
# Description: In the groups with such treatments, a 0.1-0.2 g lens was applied to the center of the cornea. 1 drop of dilating agent (phenylephrine) of predetermined concentration was applied at t(0). Size of pupil was measured using a pre-measured device for reference and followed up using the same scale.
compound,measurement,value
"CNC[C@H](O)c1cccc(O)c1 [phenylephrine, Phenylephrine]",reduction of drug load at similar efficacy,500 fold
